In assay [1] the target is T1, Dual serine/threonine and tyrosine protein kinase (Homo sapiens) (UniProt Q6XUX3).
T1 sequence (whole entry): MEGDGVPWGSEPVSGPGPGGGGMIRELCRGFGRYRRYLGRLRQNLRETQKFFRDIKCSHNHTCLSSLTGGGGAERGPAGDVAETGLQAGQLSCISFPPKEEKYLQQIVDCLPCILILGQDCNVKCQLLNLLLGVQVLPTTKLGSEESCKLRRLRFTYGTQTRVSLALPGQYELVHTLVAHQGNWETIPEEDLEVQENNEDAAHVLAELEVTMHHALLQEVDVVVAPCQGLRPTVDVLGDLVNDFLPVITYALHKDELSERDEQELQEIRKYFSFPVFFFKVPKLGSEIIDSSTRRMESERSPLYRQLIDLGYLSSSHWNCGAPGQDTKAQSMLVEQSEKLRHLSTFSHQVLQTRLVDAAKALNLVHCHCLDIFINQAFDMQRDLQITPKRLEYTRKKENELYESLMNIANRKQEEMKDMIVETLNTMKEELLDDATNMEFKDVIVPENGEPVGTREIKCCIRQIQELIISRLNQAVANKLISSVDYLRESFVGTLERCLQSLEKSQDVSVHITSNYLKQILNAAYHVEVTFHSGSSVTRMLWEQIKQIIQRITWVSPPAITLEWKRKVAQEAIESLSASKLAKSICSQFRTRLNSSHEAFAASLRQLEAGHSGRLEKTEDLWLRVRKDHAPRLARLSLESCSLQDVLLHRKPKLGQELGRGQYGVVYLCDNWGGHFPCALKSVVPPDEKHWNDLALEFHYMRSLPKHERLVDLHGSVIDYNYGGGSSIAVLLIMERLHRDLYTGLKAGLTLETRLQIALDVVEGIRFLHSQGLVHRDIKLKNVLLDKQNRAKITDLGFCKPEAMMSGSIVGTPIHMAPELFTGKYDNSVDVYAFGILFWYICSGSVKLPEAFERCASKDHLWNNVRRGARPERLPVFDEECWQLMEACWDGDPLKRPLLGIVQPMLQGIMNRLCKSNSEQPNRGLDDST
The experiment in a line: Selectivity interaction (KinomeScan (DiscoverX)) EUB0001619a DSTYK. Conditions: at 1 µM.

Assay [2] deals with BDNF/NT-3 growth factors receptor (Homo sapiens) (UniProt Q16620). To be noted: at 10 µM.
Chain of BDNF/NT-3 growth factors receptor (Homo sapiens) (Q16620 32-822 limits assumed): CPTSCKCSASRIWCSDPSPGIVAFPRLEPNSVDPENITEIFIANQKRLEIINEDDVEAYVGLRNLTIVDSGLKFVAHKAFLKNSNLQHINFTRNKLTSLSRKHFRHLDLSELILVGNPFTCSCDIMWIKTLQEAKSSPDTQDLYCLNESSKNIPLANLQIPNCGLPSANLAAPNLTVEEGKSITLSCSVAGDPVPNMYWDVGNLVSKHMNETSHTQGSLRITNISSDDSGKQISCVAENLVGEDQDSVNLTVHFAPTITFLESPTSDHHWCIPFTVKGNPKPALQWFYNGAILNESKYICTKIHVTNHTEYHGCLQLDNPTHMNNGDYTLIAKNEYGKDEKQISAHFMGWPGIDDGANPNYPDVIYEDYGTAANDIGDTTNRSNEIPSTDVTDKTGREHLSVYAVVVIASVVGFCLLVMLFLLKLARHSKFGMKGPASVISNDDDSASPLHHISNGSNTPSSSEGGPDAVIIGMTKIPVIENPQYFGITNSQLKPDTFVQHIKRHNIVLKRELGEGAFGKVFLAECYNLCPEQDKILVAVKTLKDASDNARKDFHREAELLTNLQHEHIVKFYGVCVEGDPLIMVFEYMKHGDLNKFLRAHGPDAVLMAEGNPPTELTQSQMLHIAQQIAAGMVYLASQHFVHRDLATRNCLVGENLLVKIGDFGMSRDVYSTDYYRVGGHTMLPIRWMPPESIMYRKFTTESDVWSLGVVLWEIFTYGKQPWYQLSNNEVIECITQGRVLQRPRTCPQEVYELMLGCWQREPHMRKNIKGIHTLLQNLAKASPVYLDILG
Assay [3] has as its target T2, Tyrosine-protein kinase TXK (Homo sapiens) (UniProt P42681).
T2 sequence (whole entry): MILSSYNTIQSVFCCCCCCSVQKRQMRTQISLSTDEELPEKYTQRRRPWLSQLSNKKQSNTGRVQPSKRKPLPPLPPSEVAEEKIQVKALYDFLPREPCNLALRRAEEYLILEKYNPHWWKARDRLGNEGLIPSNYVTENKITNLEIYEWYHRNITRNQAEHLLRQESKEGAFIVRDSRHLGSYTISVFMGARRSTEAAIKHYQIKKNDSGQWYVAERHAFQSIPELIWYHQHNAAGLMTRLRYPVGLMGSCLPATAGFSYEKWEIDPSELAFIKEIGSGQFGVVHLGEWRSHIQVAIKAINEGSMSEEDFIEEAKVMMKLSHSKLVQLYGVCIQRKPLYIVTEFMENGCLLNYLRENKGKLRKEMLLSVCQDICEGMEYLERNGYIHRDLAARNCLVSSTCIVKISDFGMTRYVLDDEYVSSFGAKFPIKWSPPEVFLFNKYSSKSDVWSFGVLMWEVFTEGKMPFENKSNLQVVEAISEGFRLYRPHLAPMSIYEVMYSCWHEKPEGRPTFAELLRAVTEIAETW
To be noted: at 10 µM.

Assay [4] deals with Tyrosine-protein kinase Fyn (Homo sapiens) (UniProt P06241). In words: Selectivity interaction (ActivX KiNativ screen (kinase selectivity in THP-1 cell lysates)) EUB0000639a FYN. Type of assay: subcellular. To be noted: lysate, at 0.2 µM.
Chain of Tyrosine-protein kinase Fyn (Homo sapiens) (P06241 2-537 limits assumed): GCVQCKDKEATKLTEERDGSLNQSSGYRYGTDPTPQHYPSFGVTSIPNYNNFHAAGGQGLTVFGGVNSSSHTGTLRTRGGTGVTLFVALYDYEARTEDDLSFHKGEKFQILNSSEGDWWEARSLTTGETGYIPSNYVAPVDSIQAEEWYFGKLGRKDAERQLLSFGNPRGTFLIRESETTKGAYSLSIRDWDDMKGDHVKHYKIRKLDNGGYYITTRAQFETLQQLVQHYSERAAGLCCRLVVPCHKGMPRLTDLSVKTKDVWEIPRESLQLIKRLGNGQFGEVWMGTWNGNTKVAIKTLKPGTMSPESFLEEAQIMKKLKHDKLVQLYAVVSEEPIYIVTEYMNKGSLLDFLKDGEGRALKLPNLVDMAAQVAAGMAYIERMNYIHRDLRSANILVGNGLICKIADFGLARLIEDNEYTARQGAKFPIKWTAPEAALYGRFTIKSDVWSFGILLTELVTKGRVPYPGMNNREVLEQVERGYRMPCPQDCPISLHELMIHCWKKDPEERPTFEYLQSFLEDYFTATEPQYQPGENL
The nature of assay [5]: Selectivity interaction (KinomeScan (DiscoverX)) EUB0001049a PKNB. To be noted: at 1 µM.
For assay [6], the target named is TRAF2 and NCK-interacting protein kinase (Homo sapiens) (UniProt Q9UKE5). The experiment in a line: Selectivity interaction (KinomeScan (DiscoverX)) EUB0000655a TNIK. To be noted: at 10 µM.
Chain of TRAF2 and NCK-interacting protein kinase (Homo sapiens) (Q9UKE5 whole entry, looked up): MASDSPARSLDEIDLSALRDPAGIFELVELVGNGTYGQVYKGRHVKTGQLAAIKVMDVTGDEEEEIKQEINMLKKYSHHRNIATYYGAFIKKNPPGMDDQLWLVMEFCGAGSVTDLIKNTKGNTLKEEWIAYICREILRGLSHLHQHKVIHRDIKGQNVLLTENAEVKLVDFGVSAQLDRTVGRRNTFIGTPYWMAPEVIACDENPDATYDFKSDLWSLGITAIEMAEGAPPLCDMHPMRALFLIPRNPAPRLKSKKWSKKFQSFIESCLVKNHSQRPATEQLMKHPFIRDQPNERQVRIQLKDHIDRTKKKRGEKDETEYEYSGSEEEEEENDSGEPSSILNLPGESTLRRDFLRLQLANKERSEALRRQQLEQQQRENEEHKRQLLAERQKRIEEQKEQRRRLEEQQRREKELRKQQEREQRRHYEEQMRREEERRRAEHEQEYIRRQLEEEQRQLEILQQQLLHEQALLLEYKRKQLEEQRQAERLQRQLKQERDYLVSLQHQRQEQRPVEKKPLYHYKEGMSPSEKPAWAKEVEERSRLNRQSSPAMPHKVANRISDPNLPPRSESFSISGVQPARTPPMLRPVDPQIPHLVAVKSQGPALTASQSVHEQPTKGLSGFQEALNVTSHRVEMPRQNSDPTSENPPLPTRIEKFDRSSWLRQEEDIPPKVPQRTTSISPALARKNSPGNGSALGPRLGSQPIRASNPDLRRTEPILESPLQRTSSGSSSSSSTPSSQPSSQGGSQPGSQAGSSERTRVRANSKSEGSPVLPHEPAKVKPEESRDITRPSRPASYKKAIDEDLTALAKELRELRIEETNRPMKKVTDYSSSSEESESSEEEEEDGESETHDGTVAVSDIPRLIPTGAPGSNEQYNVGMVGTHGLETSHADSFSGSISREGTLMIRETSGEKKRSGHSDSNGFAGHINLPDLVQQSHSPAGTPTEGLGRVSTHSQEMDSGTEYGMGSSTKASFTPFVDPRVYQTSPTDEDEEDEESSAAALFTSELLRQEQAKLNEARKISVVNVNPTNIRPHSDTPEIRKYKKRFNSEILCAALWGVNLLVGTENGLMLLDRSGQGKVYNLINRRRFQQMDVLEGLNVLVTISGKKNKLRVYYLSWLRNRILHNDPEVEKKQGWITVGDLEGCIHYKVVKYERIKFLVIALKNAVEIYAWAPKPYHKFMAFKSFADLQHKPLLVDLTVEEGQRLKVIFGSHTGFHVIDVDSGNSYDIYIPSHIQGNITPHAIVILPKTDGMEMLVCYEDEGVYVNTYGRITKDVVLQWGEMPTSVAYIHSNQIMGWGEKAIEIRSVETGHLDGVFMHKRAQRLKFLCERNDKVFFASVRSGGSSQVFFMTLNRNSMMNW
Assay [7] has as its target Myosin light chain kinase 2, skeletal/cardiac muscle (Homo sapiens) (UniProt Q9H1R3). The experiment in a line: Selectivity interaction (KinomeScan (DiscoverX)) EUB0000618a MYLK2. Conditions: at 10 µM.
Assay [8] has as its system Tyrosine-protein kinase ABL1 (Homo sapiens), P00519 [F317L]. The experiment in a line: Selectivity interaction (KinomeScan (DiscoverX)) EUB0001079a ABL1. Conditions: at 1 µM.
Assay [9] has as its target T3, Serine/threonine-protein kinase ULK2 (Homo sapiens) (UniProt Q8IYT8).
T3 sequence (whole entry): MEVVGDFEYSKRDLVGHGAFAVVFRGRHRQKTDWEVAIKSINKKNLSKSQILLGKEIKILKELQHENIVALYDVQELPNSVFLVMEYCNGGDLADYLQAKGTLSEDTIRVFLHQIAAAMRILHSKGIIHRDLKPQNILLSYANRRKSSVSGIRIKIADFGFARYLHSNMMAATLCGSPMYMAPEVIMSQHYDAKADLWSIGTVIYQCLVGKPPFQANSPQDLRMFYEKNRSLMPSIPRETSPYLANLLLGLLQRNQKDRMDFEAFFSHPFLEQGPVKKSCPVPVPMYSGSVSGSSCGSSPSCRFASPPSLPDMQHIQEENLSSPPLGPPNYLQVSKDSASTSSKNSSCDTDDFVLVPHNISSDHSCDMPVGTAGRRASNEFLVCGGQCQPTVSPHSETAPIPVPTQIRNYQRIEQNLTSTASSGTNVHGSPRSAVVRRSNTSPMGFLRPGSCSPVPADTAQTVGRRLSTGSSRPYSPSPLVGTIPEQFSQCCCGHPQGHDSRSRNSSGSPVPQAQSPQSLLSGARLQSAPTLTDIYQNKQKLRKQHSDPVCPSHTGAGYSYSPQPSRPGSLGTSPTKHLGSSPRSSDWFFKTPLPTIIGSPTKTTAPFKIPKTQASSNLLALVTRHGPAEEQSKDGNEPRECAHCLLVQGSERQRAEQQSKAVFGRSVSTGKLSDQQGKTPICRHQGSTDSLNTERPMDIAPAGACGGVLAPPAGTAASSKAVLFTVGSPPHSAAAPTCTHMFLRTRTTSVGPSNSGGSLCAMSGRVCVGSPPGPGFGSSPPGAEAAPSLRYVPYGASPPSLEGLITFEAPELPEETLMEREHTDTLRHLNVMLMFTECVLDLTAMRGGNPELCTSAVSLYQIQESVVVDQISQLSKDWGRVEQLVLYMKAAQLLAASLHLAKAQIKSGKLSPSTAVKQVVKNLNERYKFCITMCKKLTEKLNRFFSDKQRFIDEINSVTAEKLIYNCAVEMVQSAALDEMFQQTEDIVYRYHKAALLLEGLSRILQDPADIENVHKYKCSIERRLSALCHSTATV
In words: Selectivity interaction (KinomeScan (DiscoverX)) EUB0001079a ULK2. Conditions: at 1 µM.

Assay [10] concerns the target Serine/threonine-protein kinase 24 (Homo sapiens) (UniProt Q9Y6E0). The experiment in a line: Selectivity interaction (KinomeScan (DiscoverX)) EUB0001079a STK24. To be noted: at 1 µM.

Chain of Myosin light chain kinase 2, skeletal/cardiac muscle (Homo sapiens) (Q9H1R3 whole entry): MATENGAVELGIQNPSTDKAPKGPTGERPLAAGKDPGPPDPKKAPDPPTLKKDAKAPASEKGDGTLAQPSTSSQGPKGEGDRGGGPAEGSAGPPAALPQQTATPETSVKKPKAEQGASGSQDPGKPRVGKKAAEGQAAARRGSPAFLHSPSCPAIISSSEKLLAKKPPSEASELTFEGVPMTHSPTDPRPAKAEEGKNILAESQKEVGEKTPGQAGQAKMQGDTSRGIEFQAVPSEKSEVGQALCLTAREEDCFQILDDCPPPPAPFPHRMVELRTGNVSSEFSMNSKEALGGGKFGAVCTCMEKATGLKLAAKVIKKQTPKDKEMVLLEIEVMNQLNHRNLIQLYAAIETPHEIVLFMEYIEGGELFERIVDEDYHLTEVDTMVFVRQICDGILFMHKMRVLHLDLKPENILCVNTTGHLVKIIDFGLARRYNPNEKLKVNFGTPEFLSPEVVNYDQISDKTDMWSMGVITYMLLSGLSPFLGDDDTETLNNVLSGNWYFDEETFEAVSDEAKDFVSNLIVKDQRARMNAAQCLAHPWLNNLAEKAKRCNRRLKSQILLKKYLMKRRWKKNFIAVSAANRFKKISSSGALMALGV
Chain of Tyrosine-protein kinase ABL1 (Homo sapiens), P00519 [F317L] (P00519 whole entry F317L): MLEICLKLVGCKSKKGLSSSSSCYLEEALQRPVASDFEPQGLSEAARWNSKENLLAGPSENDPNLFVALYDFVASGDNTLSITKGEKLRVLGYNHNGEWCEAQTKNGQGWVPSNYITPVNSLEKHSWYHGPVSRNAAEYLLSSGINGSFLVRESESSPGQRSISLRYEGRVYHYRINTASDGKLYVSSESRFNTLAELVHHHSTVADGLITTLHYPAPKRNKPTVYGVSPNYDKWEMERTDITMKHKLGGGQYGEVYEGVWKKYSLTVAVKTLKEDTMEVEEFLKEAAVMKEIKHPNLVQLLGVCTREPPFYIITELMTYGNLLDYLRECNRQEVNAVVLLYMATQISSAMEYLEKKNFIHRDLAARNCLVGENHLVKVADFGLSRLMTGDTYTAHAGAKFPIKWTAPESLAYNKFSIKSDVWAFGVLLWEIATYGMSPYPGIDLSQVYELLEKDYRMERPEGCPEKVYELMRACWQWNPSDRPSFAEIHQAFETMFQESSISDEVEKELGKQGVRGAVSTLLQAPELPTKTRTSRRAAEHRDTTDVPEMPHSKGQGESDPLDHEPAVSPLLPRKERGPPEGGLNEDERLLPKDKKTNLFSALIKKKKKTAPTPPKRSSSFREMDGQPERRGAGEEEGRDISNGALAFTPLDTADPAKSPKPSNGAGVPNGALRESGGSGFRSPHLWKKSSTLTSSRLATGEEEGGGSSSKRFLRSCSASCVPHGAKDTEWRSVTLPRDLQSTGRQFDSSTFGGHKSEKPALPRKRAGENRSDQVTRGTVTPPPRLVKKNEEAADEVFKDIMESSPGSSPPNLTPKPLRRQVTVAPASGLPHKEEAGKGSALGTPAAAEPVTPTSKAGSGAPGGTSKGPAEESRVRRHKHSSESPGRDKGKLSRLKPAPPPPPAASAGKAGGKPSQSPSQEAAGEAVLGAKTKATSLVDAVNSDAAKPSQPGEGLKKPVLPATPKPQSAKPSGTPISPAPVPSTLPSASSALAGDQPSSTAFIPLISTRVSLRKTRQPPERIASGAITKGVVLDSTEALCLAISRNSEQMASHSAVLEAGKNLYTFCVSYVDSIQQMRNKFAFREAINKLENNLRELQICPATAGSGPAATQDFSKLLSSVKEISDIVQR
Chain of Serine/threonine-protein kinase 24 (Homo sapiens) (Q9Y6E0 whole entry, looked up): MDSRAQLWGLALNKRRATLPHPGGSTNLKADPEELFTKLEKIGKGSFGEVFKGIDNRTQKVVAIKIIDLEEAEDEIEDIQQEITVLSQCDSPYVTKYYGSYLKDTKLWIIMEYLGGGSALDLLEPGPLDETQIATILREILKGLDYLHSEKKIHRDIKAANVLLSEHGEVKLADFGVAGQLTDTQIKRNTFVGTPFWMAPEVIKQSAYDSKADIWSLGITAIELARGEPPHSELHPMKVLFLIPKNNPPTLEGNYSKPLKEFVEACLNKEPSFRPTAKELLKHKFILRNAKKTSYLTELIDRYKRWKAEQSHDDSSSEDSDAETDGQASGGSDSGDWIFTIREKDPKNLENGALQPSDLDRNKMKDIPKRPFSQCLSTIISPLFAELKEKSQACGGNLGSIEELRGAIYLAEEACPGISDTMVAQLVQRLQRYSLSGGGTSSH

The molecule `N#Cc1cccc(-c2c[nH]c3ncnc(N4CCOCC4)c23)c1` registered a % of control in assay [1] of 91%. In assay [2], `CCN(CC)CCCCNc1ncc2cc(-c3cc(OC)cc(OC)c3)c(NC(=O)NC(C)(C)C)nc2n1` showed a % of control of 100%. Take `Cc1cc([C@@H](C)Nc2ccccc2C(=O)O)c2nc(N3CCOCC3)cc(=O)n2c1` [AZD-6482]: the % of control in assay [3] stood at 90%. In the case of `CC[C@@H]1[C@H](F)C(=O)N[C@@H]1COc1nccc2cc(C(N)=O)c(OC)cc12` [ZIMLOVISERTIB], the % of inhibition in [4] was 0.7%. In assay [5], `COc1cc(Nc2nc(C)cc(-c3cnn4nc(OC)ccc34)n2)cc(C(F)(F)F)c1` gave a % of control of 71%.

In assay [6], `CN(C)CCOc1ccc(-c2nc(-c3ccncc3)c(-c3ccc4c(c3)CC/C4=N\O)[nH]2)cc1` displayed a % of control of 12%. In turn, `O[C@H]1CC[C@H](Nc2ncc3nc(Nc4c(F)cc(F)cc4F)n([C@H]4CCOC4)c3n2)CC1` came in with a % of control in assay [7] of 100%. With `Nc1cnc(N2CCc3cc(S(=O)(=O)Nc4c(F)cc(Cl)cc4F)cc(N4CCCC4=O)c32)nc1` [TP-020n], the % of control amounted to 78% in [8], 100% in assay [9] and 100% in assay [10].

The values are drawn from ChEMBL document CHEMBL5465560, “Selectivity Literature for EUbOPEN Chemogenomic Library” (2024).
